The test system of data set [1] is Rattus norvegicus. Briefly: Antipsychotic activity in orally dosed Wistar rat assessed as inhibition of conditioned avoidance response after 1 hr. Type of data set: functional. Particulars: po.
The target in the next data set is D(2) dopamine receptor (Rattus norvegicus, UniProt P61169). The data set can be described thus: Displacement of [3H]spiperone from dopamine D2 receptor in rat striatal membranes. The format is cell membranes, Membrane.
For the next data set, the target named is D(3) dopamine receptor (Rattus norvegicus, UniProt P19020). Briefly: Displacement of [3H]spiperone from rat dopamine D3 receptor expressed in Sf9 cells. For orientation: Loss of bound radioactivity is the signal in a displacement assay; it reports binding, not function.
D(3) dopamine receptor, sequence (P19020 whole entry): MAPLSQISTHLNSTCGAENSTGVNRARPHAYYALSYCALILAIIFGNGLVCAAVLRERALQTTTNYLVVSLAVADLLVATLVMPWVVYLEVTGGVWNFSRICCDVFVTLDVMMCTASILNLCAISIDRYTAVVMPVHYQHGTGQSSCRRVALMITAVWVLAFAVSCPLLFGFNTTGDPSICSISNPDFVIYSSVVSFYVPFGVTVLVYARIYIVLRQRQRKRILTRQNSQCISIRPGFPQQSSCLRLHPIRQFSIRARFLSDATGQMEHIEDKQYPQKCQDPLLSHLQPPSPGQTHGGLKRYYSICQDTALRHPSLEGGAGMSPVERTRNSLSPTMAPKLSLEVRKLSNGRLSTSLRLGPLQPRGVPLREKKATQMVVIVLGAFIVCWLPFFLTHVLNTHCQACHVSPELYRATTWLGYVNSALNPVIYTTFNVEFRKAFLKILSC
Data set [2] addresses D(3) dopamine receptor (Homo sapiens) (UniProt P35462). The data set can be described thus: Antagonistic activity at human D3 receptor expressed in CHO cells by [35S]GTP-gamma-S binding assay. The format is functional, cell-based. A general note: GTPγS resists hydrolysis and so accumulates on activated G proteins.
Data set [3] is described as follows: Cmax in orally dosed rat brain. The format is ADME, organism-based. Also on record: route oral. Particulars: po.
Data set [4] has as its target D(2) dopamine receptor (Homo sapiens) (UniProt P14416). The data set can be described thus: Antagonistic activity at human D2 expressed in CHO cells by [35S]GTP-gamma-S binding assay. The format is functional, cell-based.
The subject of data set [5] is Rattus norvegicus. Briefly: Catalepsy in orally dosed Wistar rat after 30 mins. The format is functional.
A further data set deals with Mus musculus. Briefly: Antipsychotic activity in orally dosed CD1 mice assessed as inhibition of […] induced climbing behavior. Particulars: CD1, po.
Data set [6] can be described thus: Tmax in orally dosed rat brain. The format is ADME, organism-based. Particulars: po.
Data set [7] can be described thus: Bioavailability in rat at 10 mg/kg. Particulars: in vivo. Type of data set: ADME, organism-based.

Active and inactive are the calls of the source. The rule behind the calls is not given here.

D(2) dopamine receptor, sequence (P61169 whole entry): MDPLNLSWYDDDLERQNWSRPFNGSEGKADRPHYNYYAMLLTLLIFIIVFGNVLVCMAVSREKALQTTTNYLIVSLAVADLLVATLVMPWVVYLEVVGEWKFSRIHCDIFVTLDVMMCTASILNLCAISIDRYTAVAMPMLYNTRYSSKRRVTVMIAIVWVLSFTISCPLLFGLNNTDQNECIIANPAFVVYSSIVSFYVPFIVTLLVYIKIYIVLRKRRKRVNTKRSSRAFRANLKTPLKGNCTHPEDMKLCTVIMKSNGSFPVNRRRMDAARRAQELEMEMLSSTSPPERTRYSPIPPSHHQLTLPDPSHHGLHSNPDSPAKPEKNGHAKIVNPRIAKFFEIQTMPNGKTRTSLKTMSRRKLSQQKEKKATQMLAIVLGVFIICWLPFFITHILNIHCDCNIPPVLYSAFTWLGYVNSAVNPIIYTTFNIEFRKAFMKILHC
D(2) dopamine receptor (Homo sapiens), sequence (P14416 whole entry): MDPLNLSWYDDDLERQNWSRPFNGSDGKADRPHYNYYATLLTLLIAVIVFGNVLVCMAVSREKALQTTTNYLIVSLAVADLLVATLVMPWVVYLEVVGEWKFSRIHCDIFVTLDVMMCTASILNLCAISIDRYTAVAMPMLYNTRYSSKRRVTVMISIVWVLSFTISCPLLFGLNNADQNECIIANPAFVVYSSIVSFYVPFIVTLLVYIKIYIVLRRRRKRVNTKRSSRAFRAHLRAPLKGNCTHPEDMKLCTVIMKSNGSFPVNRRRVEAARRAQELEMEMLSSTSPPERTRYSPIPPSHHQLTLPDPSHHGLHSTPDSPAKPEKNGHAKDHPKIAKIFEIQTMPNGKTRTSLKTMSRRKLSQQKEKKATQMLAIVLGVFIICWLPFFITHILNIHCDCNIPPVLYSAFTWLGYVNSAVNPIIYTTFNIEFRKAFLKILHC
D(3) dopamine receptor (Homo sapiens), sequence (P35462 whole entry): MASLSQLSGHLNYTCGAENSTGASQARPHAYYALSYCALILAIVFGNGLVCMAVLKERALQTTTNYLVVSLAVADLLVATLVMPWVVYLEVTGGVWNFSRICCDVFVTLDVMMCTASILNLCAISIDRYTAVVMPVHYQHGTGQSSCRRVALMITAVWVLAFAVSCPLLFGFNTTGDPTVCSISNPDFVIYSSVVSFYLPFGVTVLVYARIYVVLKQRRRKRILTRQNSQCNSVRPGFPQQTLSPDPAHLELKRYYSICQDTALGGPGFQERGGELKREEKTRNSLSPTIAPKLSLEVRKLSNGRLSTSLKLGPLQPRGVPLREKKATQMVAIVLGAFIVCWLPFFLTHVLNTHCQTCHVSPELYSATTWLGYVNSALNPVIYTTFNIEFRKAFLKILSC

As to `Cc1cc2c(s1)Nc1ccccc1N=C2N1CCN(C)CC1` [OLANZAPINE], in the data set on Rattus norvegicus [1], the ED50 was found to be 3.9 mg/kg.
Turning to `N#Cc1cc(N2CCN(CC[C@H]3CC[C@H](NS(=O)(=O)c4ccc5c(c4)CCC(=O)N5)CC3)CC2)cc(C(F)(F)F)c1`, the IC50 is 30 nM at D(2) dopamine receptor and 0.7 nM at D(3) dopamine receptor.
`N#Cc1cc(N2CCN(CC[C@H]3CC[C@H](NS(=O)(=O)c4cccnc4)CC3)CC2)cc(C(F)(F)F)c1`: the result in data set [2] and in data set [4] was Active. Besides, the ED50 came to 11.6 mg/kg with Rattus norvegicus [1] and 22 mg/kg in the data set with Mus musculus. The Cmax in [3] was found to be 921 ng/mL. Besides, the values for the IC50 on D(2) dopamine receptor and at D(3) dopamine receptor were 24 nM and 0.4 nM, respectively. The molecule further registered an MED in the data set with Rattus norvegicus [5] greater than 200 mg/kg. Besides, in [6], the Tmax is 1 h. The molecule also had a bioavailability in data set [7] of 55%.
In the case of `O=C1COc2ccc(S(=O)(=O)N[C@H]3CC[C@H](CCN4CCC(Oc5cccc(C(F)(F)F)c5)CC4)CC3)cc2N1`, the IC50 on D(2) dopamine receptor came out at 5.3 nM; on D(3) dopamine receptor, 1 nM.
On the same counts, the results for `O=S(=O)(N[C@H]1CC[C@H](CCN2CCC(Nc3cc(Cl)ccc3Cl)CC2)CC1)c1ccc(F)cc1` are 9 nM and 2 nM.
As to `O=S(=O)(N[C@H]1CC[C@H](CCN2CCN(c3cccc(Cl)c3Cl)CC2)CC1)c1cccnc1`, the results for the IC50 at D(2) dopamine receptor and at D(3) dopamine receptor were 4 nM and 0.2 nM, respectively.
In the case of `COc1ccc(S(=O)(=O)N[C@H]2CC[C@H](CCN3CCN(c4ccc(Br)cc4OC)CC3)CC2)cc1`, the IC50 at D(2) dopamine receptor came out at 28 nM; on D(3) dopamine receptor, 0.5 nM.
For `O=S(=O)(N[C@H]1CC[C@H](CCN2CCC(Cc3cccc(C(F)(F)F)c3)CC2)CC1)c1ccc(-n2cccn2)cc1`, the IC50 on D(2) dopamine receptor turned out to be 4.3 nM; at D(3) dopamine receptor it was 0.5 nM.
For `O=S(=O)(N[C@H]1CC[C@H](CCN2CCC(Cc3cccc(C(F)(F)F)c3)CC2)CC1)c1cc2ccccc2s1`, the results for the IC50 at D(2) dopamine receptor and at D(3) dopamine receptor were 91 nM and 2.6 nM, respectively.
On the same counts, the results for `COc1ccc(S(=O)(=O)N[C@H]2CC[C@H](CCN3CCN(c4cccc(C#N)c4)CC3)CC2)cc1OC` are 57 nM and 0.7 nM.
Consider `O=C1CCc2ccc(OCCCCN3CCN(c4cccc(Cl)c4Cl)CC3)cc2N1` [ARIPIPRAZOLE], for which the ED50 with Rattus norvegicus [1] was found to be 17.9 mg/kg.
Turning to `N#Cc1cc(N2CCN(CC[C@H]3CC[C@H](NS(=O)(=O)c4ccc(Br)cc4)CC3)CC2)cc(C(F)(F)F)c1`, the IC50 on D(2) dopamine receptor worked out at 26 nM; at D(3) dopamine receptor, 3.3 nM.
In the case of `N#Cc1cc(N2CCN(CC[C@H]3CC[C@H](NS(=O)(=O)c4cccc(C#N)c4)CC3)CC2)cc(C(F)(F)F)c1`, the IC50 on D(2) dopamine receptor is 23 nM; on D(3) dopamine receptor it was 5.8 nM.
On the same counts, the results for `CC(=O)Nc1ccc(S(=O)(=O)N[C@H]2CC[C@H](CCN3CCN(c4cc(C#N)cc(C(F)(F)F)c4)CC3)CC2)cc1` are 39 nM and 0.9 nM.
`Cc1ccc(S(=O)(=O)N[C@H]2CC[C@H](CCN3CCN(c4cc(C#N)cc(C(F)(F)F)c4)CC3)CC2)cn1`: the IC50 came out at 39 nM at D(2) dopamine receptor and 4.2 nM at D(3) dopamine receptor.
In the case of `O=S(=O)(N[C@H]1CC[C@H](CCN2CCC(Cc3cccc(C(F)(F)F)c3)CC2)CC1)c1ccc(Cl)cc1`, the IC50 on D(2) dopamine receptor worked out at 41 nM; on D(3) dopamine receptor, 3.8 nM.

For orientation: ED50 means the midpoint of the dose-response relation. As a reminder, the IC50 is the concentration needed to halve the response being measured. High values mean weaker potency in that assay, low ones greater potency in that assay. As usually defined, the Cmax is the highest concentration seen after dosing. For orientation: Tmax means the time at which the peak concentration occurs. In general, bioavailability refers to dose-corrected exposure relative to a reference, in per cent.

The record behind these values is ChEMBL document CHEMBL1149708, “Novel sulfonamides having dual dopamine D2 and D3 receptor affinity show in vivo antipsychotic efficacy with beneficial cognitive and EPS profile” (Bioorg Med Chem Lett, 2007).
